Source: US20110100079A1, “METHOD FOR IMPARTING STRESS TOLERANCE TO PLANT” (priority 2007, published 2011)

Columns and labels:
Assay type in all cases: in vivo
[1] = tested on: “Momotaro” tomato; test: Example 6 salt stress test (tomato), soil culture; conditions: 23° C., underground portion, 100 ppm, 2 weeks; for Fresh weight, relative value (untreated plot = 100), Test 1: EC 1.3 mS/cm; for Fresh weight, relative value (untreated plot = 100), Test 4: pF 1.7, five-leaf stage; for Fresh weight, relative value (untreated plot = 100), Test 3: EC 3 mS/cm
Procedure: (1) A. soil culture (a) Comparative example conditions (stress-free optimum growth conditions) Cultivation temperature: 23° C., EC: 1.0 mS/cm (cultivation with Kureha gardening soil), pF value: 1.7 (capillaries in a saturated state) (b) Example conditions (salt stress conditions) Cultivation temperature: 23° C., EC: 1.3, 2.0, 3.0 mS/cm (cultivation with Kureha gardening soil), pF value: 1.7 (capillaries in a saturated state)
(§1) (a) Comparative example conditions (stress-free optimum growth conditions) Cultivation temperature: 23° C., EC: 1.3 mS/cm (Otsuka ½A formulation) (b) Example conditions (salt stress conditions) Cultivation temperature: 23° C., EC: 2.7, 3.9, 4.8 mS/cm (cultivation with Kureha gardening soil) (2) Illuminance: 5000 Lux (fluorescent light), light/dark cycle: 16 hours/8 hours (3) Employed soil: Kureha gardening soil manufactured by Kureha Corporation (fertilizer components: N:P:K=0.4:1.9:0.6 g/kg soil) (4) Employed solution culture medium: Otsuka ½A formulation: a mixed solution of Otsuka House No. 1 (N:P:K=10:8:27) 7.5 g/10 L and Otsuka House No. 2 (N:P:K:Ca=10:0:0:23) 5 g/10 L, total nitrogen: 130 ppm, phosphoric acid: 60 ppm, potassium: 203 ppm) (5) Cultivation period: 2 weeks (6) Plant preparation: A 50-cell tray was filled with Kureha gardening soil manufactured by Kureha Corporation (fertilizer components: N:P:K=0.4:1.9:0.6 g/kg soil), and seeds of a “Momotaro” tomato or tubers of a “Danshaku” potato were sowed, thinly covered with Kureha gardening soil, and sufficiently watered to allow the seeds or the tubers to sprout. When the leaves in the 2-leaf stage or the 5-leaf stage fully unfolded, the soil on the tomato roots or the potato roots was carefully washed away with running water, and a test was performed. (7) Test chemicals: POE (20) sorbitan monolauric acid ester: Reodol TW-L120 (Kao Corporation) POE (20) sorbitan monopalmitic acid ester: Reodol TW-P120 (Kao Corporation) POE (20) sorbitan monostearic acid ester: Reodol TW-S120 (Kao Corporation) POE (20) sorbitan monooleic acid ester: Reodol TW-O120 (Kao Corporation) Sorbitan monooleic acid ester: Emasol 0-10(F) (Kao Corporation) POE (6) sorbitan monooleic acid ester: Reodol TW-O106 (Kao Corporation) Alkyl (number of carbon atoms: 10) polyglucoside: AG-10LK (Kao Corporation) Alkyl (number of carbon atoms: 12 to 14) polyglucoside: AG-124 (Kao Corporation) Sucrose fatty acid ester (number of carbon atoms: C18, HLB: 5): S-570 (Mitsubishi-Kagaku Foods Corporation) Sucrose fatty acid ester (number of carbon atoms: C18, HLB: 9): S-970 (Mitsubishi-Kagaku Foods Corporation) Sucrose fatty acid ester (number of carbon atoms: C18, HLB: 11): S-1170 (Mitsubishi-Kagaku Foods Corporation) Sucrose fatty acid ester (number of carbon atoms: C18, HLB: 15): 5-1570 (Mitsubishi-Kagaku Foods Corporation) Sucrose fatty acid ester (number of carbon atoms: C16, HLB: 15): P-1570 (Mitsubishi-Kagaku Foods Corporation) Sucrose fatty acid ester (number of carbon atoms: C18:1, HLB: 15): O-1570 (Mitsubishi-Kagaku Foods Corporation) (8) Amount of treatment solution applied: 10 ml/specimen for leaf spraying, 250 ml/specimen for hydroponic culture (treatment of underground portion) (9) 50 ml/specimen for soil culture (treatment of underground portion)
The environmental conditions in a climatic chamber were controlled so as to have a temperature of 23° C., an illuminance by a fluorescent light of 5000 Lux, and a daily light-dark cycle of a 16-hour light period and an 8-hour dark period. Tomatoes as prepared above were transplanted in size-3 (9 cm) pots. During the test period, the EC value was controlled by adding a suitable amount of a 10% NaCl solution once a day so as to attain a specific salt stress value. A treatment solution containing a compound of Table 1 in a specific concentration (the remainder was water) was prepared and sprayed onto the leaves or applied to the underground portions. […]

[2] = tested on: “Momotaro” tomato; test: Example 6 salt stress test (tomato), hydroponic culture; conditions: 23° C., 100 ppm, 2 weeks; for Fresh weight, relative value (untreated plot = 100), Test 5 / Fresh weight, relative value (untreated plot = 100), Test 8 / Fresh weight, relative value (untreated plot = 100), Test 6 / Fresh weight, relative value (untreated plot = 100), Test 7: hydroponic culture; for Fresh weight, relative value (untreated plot = 100), Test 5: EC 2.7 mS/cm; for Fresh weight, relative value (untreated plot = 100), Test 5 / Fresh weight, relative value (untreated plot = 100), Test 6 / Fresh weight, relative value (untreated plot = 100), Test 7 / Fresh weight, relative value (untreated plot = 100), Comparison 2: two-leaf stage; for Fresh weight, relative value (untreated plot = 100), Test 8 / Fresh weight, relative value (untreated plot = 100), Test 6: EC 3.9 mS/cm; for Fresh weight, relative value (untreated plot = 100), Test 8: five-leaf stage; for Fresh weight, relative value (untreated plot = 100), Test 7: EC 4.8 mS/cm; for Fresh weight, relative value (untreated plot = 100), Comparison 2: stress-free: hydroponic culture, EC 1.3 mS/cm
Procedure: as §1
The environmental conditions in a climatic chamber were controlled so as to have a temperature of 23° C., an illuminance by a fluorescent light of 5000 Lux, and a daily light-dark cycle of a 16-hour light period and an 8-hour dark period. Tomatoes as prepared above were planted in 250 ml polyethylene bottles each filled with a solution culture medium having a different EC value. Different EC values were achieved by taking a ½ Otsuka A formulation having an EC value of 1.3 as a standard and suitably increasing the fertilizer concentration through proportional counting. A treatment solution containing a compound of Table 1 in a specific concentration (the remainder was water) was prepared and sprayed onto the leaves or applied to the underground portion. In each test plot, 10 specimens were prepared for replication, and the average of the fresh weight of each specimen 2 weeks after the beginning of the test was calculated and expressed as a relative value where “100” indicates a result identical to that of the untreated plot of a given EC condition. […]

[3] = tested on: tomato; test: Example 8 temperature stress test (tomato), soil culture; conditions: 100 ppm, 2 weeks; for Fresh weight, relative value (untreated plot = 100), Comparison 1: stress-free: tomato soil culture, cultivation temperature 23, EC 1, pF 1.7, two-leaf stage; for Fresh weight, relative value (untreated plot = 100), Test 1 / Fresh weight, relative value (untreated plot = 100), Test 2 / Fresh weight, relative value (untreated plot = 100), Test 3 / Fresh weight, relative value (untreated plot = 100), Test 4: tomato soil culture; for Fresh weight, relative value (untreated plot = 100), Test 1: cultivation temperature 10, EC 1, pF 1.7, two-leaf stage; for Fresh weight, relative value (untreated plot = 100), Test 2: cultivation temperature 16, EC 1, pF 1.7, two-leaf stage; for Fresh weight, relative value (untreated plot = 100), Test 3: cultivation temperature 29, EC 1, pF 1.7, two-leaf stage; for Fresh weight, relative value (untreated plot = 100), Test 4: cultivation temperature 35, EC 1, pF 1.7, two-leaf stage
Procedure: Other Conditions were as in Example 5. The environmental conditions in a climatic chamber were controlled so as to have an illuminance by a fluorescent light of 5000 Lux, a daily light-dark cycle of a 16-hour light period and an 8-hour dark period, and various temperatures. Tomatoes as prepared above were transplanted in size-3 (9 cm) pots. A treatment solution containing a compound of Table 1 in a specific concentration (the remainder was water) was prepared and sprayed onto the leaves or applied to the underground portions. […] A comparative example was constructed to reflect the temperature stress-free optimum cultivation conditions to investigate the plant energizing ability. […] Moreover, when the products of the present invention and the comparative products were compared, the stress tolerance imparting ability of the products of the present invention was higher in respective temperature stress conditions.

[4] = soil culture, pF 1.7, two-leaf stage

Which results are given for “POE (20) sorbitan monooleic acid ester [Product of present invention 1]”?
Fresh weight, relative value (untreated plot = 100), Test 1 [1, 4]: 142; Fresh weight, relative value (untreated plot = 100), Test 4 ([1]; soil culture, EC 2 mS/cm): 156; Fresh weight, relative value (untreated plot = 100), Test 2 ([1]; soil culture, EC 2 mS/cm, pF 1.7, two-leaf stage): 185; Fresh weight, relative value (untreated plot = 100), Test 3 [1, 4]: 140; Fresh weight, relative value (untreated plot = 100), Comparison 1 ([1]; stress-free: soil culture, EC 1 mS/cm, pF 1.7, two-leaf stage): 103; Fresh weight, relative value (untreated plot = 100), Test 5 ([2]; underground portion): 145; Fresh weight, relative value (untreated plot = 100), Test 8 ([2]; underground portion): 160; Fresh weight, relative value (untreated plot = 100), Test 6 ([2]; underground portion): 190; Fresh weight, relative value (untreated plot = 100), Test 7 ([2]; underground portion): 145; Fresh weight, relative value (untreated plot = 100), Comparison 2 ([2]; underground portion): 104; Fresh weight, relative value (untreated plot = 100), Comparison 1 ([3]; underground portion): 103; Fresh weight, relative value (untreated plot = 100), Test 1 ([3]; underground portion): 128; Fresh weight, relative value (untreated plot = 100), Test 2 ([3]; underground portion): 131; Fresh weight, relative value (untreated plot = 100), Test 3 ([3]; underground portion): 158; Fresh weight, relative value (untreated plot = 100), Test 4 ([3]; underground portion): 138

Which “Fresh weight, relative value (untreated plot = 100), Test 1” value (“Fresh weight, relative value … Test 1” below) [1, 4] does the source give for `O=C(O)[C@@H]1CCCN1` [Comparative product 2, Proline, reference compound] here?
Its value is 103.

What about the “Fresh weight, relative value (untreated plot = 100), Test 4” value (“Fresh weight, relative value … Test 4” for short) ([1]; soil culture, EC 2 mS/cm) of the same compound?
The value was 100.

And the “Fresh weight, relative value (untreated plot = 100), Test 3” value (from here on “Fresh weight, relative value … Test 3”) [1, 4]?
Its value is 100.

And the “Fresh weight, relative value (untreated plot = 100), Test 5” value ([2]; leaf)?
The value was 102.

What about the “Fresh weight, relative value (untreated plot = 100), Test 5” value ([2]; underground portion) of the same compound?
The value was 103.

And the “Fresh weight, relative value (untreated plot = 100), Test 8” value ([2]; leaf)?
Its value is 101.

And the “Fresh weight, relative value (untreated plot = 100), Test 8” value ([2]; underground portion)?
Its value is 100.

What about the “Fresh weight, relative value (untreated plot = 100), Test 6” value ([2]; leaf) of the same compound?
The value was 102.

What about the “Fresh weight, relative value (untreated plot = 100), Test 6” value ([2]; underground portion) of the same compound?
Its value is 103.

What about the “Fresh weight, relative value (untreated plot = 100), Test 7” value ([2]; leaf) of the same compound?
Its value is 102.

What about the “Fresh weight, relative value (untreated plot = 100), Test 7” value ([2]; underground portion) of the same compound?
Its value is 102.

And the “Fresh weight, relative value (untreated plot = 100), Comparison 2” value ([2]; leaf)?
The value was 102.

And the “Fresh weight, relative value (untreated plot = 100), Comparison 2” value ([2]; underground portion)?
The value was 103.

What about the “Fresh weight, relative value (untreated plot = 100), Comparison 1” value ([3]; leaf) of the same compound?
The value was 101.

What about the “Fresh weight, relative value (untreated plot = 100), Comparison 1” value ([3]; underground portion) of the same compound?
The value was 102.

And the “Fresh weight, relative value … Test 1” value ([3]; leaf)?
Its value is 100.

What about the “Fresh weight, relative value … Test 1” value ([3]; underground portion) of the same compound?
The value was 100.

What about the “Fresh weight, relative value (untreated plot = 100), Test 2” value ([3]; leaf) of the same compound?
The value was 100.

What about the “Fresh weight, relative value (untreated plot = 100), Test 2” value ([3]; underground portion) of the same compound?
Its value is 100.

And the “Fresh weight, relative value … Test 3” value ([3]; leaf)?
The value was 101.

And the “Fresh weight, relative value … Test 3” value ([3]; underground portion)?
Its value is 101.

And the “Fresh weight, relative value … Test 4” value ([3]; leaf)?
The value was 101.

And the “Fresh weight, relative value … Test 4” value ([3]; underground portion)?
Its value is 100.
